Experimental data reported in patent US9193719B2, “1,2,4-triazol-5-ones and analogs exhibiting anti-cancer and anti-proliferative activities” (Deciphera Pharmaceuticals, LLC, priority 2013, dated 2015).
pIC50: −log10 of the molar value.

Experiments:
[1] = target: T1, unphosphorylated c-KIT kinase (uKIT, Seq. ID no. 2) (Homo sapiens, UniProt P10721); test: uKit kinase enzymatic assay (pyruvate kinase/lactate dehydrogenase coupled); type: biochemical; conditions: ATP 2000 μM, rate 3 to 4 h
T1 construct: uKit with N-terminal GST fusion used for screening
Description: uKit Kinase (Seq. ID No. 2) Assay
Activity of unphosphorylated c-KIT kinase (uKIT, Seq. ID no. 2) was determined by following the production of ADP from the KIT kinase reaction with ATP and poly E4Y as substrates through coupling with the pyruvate kinase/lactate dehydrogenase system (e.g., Schindler et al. Science (2000) 289: 1938-1942). In this assay, the oxidation of NADH (thus the decrease at A340 nm) was continuously monitored spectrophometrically. The reaction mixture (100 μl) contained unphosphorylated KIT (12 nM), polyE4Y (1 mg/mL), MgCl2 (10 mM), pyruvate kinase (4 units), lactate dehydrogenase (0.7 units), phosphoenol pyruvate (1 mM), and NADH (0.28 mM) and ATP (2000 μM) in 90 mM Tris buffer containing 0.2% octyl-glucoside and 1% DMSO, pH 7.5. The inhibition reaction was started by mixing serial diluted test compound with the above reaction mixture. The absorption at 340 nm was monitored continuously for 4 hours at 30° C. on Synergy 2 plate reader (BioTech). Reaction rates around 3 to 4 h time frame were used to calculate % inhibitions, from which IC50 values were generated.

[2] = target: T2, unphosphorylated PDGFRβ kinase (uPDGFRβ, Seq. ID No. 3) (Homo sapiens, UniProt P09619); test: uPDGFRβ kinase enzymatic assay (pyruvate kinase/lactate dehydrogenase coupled); type: biochemical; conditions: ATP 500 μM, rate 1.5 to 2.5 h
T2 construct: purchased DeCode
Description: Unphosphorylated PDGFRβ (uPDGFRβ) Kinase (Seq. ID No. 3) Assay
Activity of unphosphorylated PDGFRβ kinase (uPDGFRβ, Seq. ID No. 3) was determined by following the production of ADP from the kinase reaction with ATP and poly E4Y as substrates through coupling with the pyruvate kinase/lactate dehydrogenase system (e.g., Schindler et al. Science (2000) 289: 1938-1942). In this assay, the oxidation of NADH (thus the decrease at A340 nm) was continuously monitored spectrophometrically. The reaction mixture (100 μL) contained PDGFRβ (DeCode, 15.7 nM), polyE4Y (2.5 mg/mL), MgCl2 (10 mM), pyruvate kinase (4 units), lactate dehydrogenase (0.7 units), phosphoenol pyruvate (1 mM) and NADH (0.28 mM) and ATP (500 μM) in a 90 mM Tris buffer containing 0.2% octyl-glucoside and 1% DMSO, at pH 7.5. The inhibition reaction was started by mixing serial diluted test compound with the above reaction mixture. The absorption at 340 nm was monitored continuously for 4 h at 30° C. on a Polarstar Optima or Synergy 2 plate reader. The reaction rate was calculated using the 1.5 to 2.5 h time frame. Percent inhibition was obtained by comparison of reaction rate with that of a control (i.e. with no test compound). IC50 values were calculated from a series of percent inhibition values determined at a range of inhibitor concentrations using software routines as implemented in the GraphPad Prism software package.

[3] = target: T3, unphosphorylated c-FMS kinase (uFMS, Seq. ID no. 1) (Homo sapiens, UniProt P07333); test: uFMS kinase enzymatic assay (pyruvate kinase/lactate dehydrogenase coupled); type: biochemical; conditions: ATP 500 μM, rate 3 to 4 h
T3 construct: purchased Millipore
T3 sequence (P07333 538-972): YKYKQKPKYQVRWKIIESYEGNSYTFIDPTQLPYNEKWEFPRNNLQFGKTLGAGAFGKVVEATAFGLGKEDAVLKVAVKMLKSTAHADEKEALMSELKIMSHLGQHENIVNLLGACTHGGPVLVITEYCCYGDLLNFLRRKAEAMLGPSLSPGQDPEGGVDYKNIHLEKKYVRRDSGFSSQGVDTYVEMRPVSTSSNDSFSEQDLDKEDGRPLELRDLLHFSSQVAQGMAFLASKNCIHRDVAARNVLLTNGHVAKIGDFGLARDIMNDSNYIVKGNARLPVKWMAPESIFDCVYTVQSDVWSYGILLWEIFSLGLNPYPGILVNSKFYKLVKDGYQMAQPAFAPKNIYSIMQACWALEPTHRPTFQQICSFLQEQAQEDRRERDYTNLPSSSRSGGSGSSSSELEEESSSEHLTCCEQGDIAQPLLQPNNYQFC
Description: uFMS Kinase (Seq. ID No. 1) Assay
Activity of unphosphorylated c-FMS kinase (uFMS, Seq. ID no. 1) was determined by following the production of ADP from the FMS kinase reaction with ATP and poly E4Y as substrates through coupling with the pyruvate kinase/lactate dehydrogenase system (e.g., Schindler et al. Science (2000) 289: 1938-1942). In this assay, the oxidation of NADH (thus the decrease at A340 nm) was continuously monitored spectrophometrically. The reaction mixture (100 μL) contained FMS (purchased from Millipore) (10 nM), polyE4Y (1 mg/mL), MgCl2 (10 mM), pyruvate kinase (4 units), lactate dehydrogenase (0.7 units), phosphoenol pyruvate (1 mM), NADH (0.28 mM) and ATP (500 μM) in 90 mM Tris buffer containing 0.2% octyl-glucoside and 1% DMSO, pH 7.5. The inhibition reaction was started by mixing serial diluted test compound with the above reaction mixture. The absorption at 340 nm was monitored continuously for 4 hours at 30° C. on Synergy 2 plate reader. The reaction rate was calculated using the 3 to 4 h time frame. Percent inhibition was obtained by comparison of reaction rate with that of a control (i.e. in the absence of test compound). IC50 values were calculated from a series of percent inhibition values determined at a range of inhibitor concentrations using software routines as implemented in the GraphPad Prism software package.

M-NFS-60 cells = test: M-NFS-60 cell proliferation assay (resazurin); type: cell-based; conditions: 67 h incubation
Description: M-NFS-60 cells (catalog #CRL-1838) were obtained from the American Type Culture Collection (ATCC, Manassas, Va.). Briefly, cells were grown in suspension in RPMI 1640 medium supplemented with 10% characterized fetal bovine serum (Invitrogen, Carlsbad, Calif.), 0.05 mM 2-mercaptoethanol, and 20 ng/mL mouse recombinant macrophage colony stimulating factor (M-CSF) at 37° C., 5% CO2, and 95% humidity. Cells were allowed to expand until reaching saturation at which point they were subcultured or harvested for assay use.
M-NFS-60 Cell Proliferation Assay
A serial dilution of test compound was dispensed into a 384-well black clear bottom plate (Corning, Corning, N.Y.). Two thousand five hundred cells were added per well in 50 μL complete growth medium. Plates were incubated for 67 h at 37° C., 5% CO2, and 95% humidity. At the end of the incubation period 10 μL of a 440 μM solution of resazurin (Sigma, St. Louis, Mo.) in PBS was added to each well and incubated for an additional 5 h at 37° C., 5% CO2, and 95% humidity. Plates were read on a Synergy2 reader (Biotek, Winooski, Vt.) using an excitation of 540 nm and an emission of 600 nm. IC50 values were calculated from a series of percent inhibition values determined at a range of inhibitor concentrations using software routines as implemented in the GraphPad Prism software package.

osteoclast precursors = test: Osteoclast tartrate-resistant acid phosphatase assay; type: cell-based; conditions: RANKL and M-CSF, 7-14 days, tartrate-resistant acid phosphatase activity
Description: Osteoclast Tartrate-Resistant Acid Phosphatase Assay
A serial dilution of test compound was dispensed into a 384-well black clear bottom plate (Nalge Nunc International, Rochester, N.Y.). Compound was diluted by the addition of DMEM media supplemented with 10% characterized fetal bovine serum (Invitrogen, Carlsbad, Calif.). Diluted compound was transferred to a 384-well black clear bottom plate. Two-thousand five hundred osteoclast precursors (Lonza, Walkersville, Md.) were added per well in growth media containing Receptor Activator of Nuclear Factor Kappa-beta ligand (RANKL) and M-CSF (R&D Systems, Minneapolis, Minn.). Plates were incubated for 7-14 days at 37 degrees Celsius, 5% CO2, and 95% humidity to allow differentiation of osteoclast precursors. At the end of the incubation period, 10 μL of supernatant from each well was transferred to a clear 384-well plate. Tartrate-resistant acid phosphatase activity in the supernatant samples was determined using an acid phosphatase assay kit (Sigma, St. Louis, Mo.). Absorbance was measured at 550 nm using a plate reader. Data was analyzed using Prism software (Graphpad, San Diego, Calif.) to calculate IC50 values.

T1 sequence (P10721 with tags, fused parts or gaps): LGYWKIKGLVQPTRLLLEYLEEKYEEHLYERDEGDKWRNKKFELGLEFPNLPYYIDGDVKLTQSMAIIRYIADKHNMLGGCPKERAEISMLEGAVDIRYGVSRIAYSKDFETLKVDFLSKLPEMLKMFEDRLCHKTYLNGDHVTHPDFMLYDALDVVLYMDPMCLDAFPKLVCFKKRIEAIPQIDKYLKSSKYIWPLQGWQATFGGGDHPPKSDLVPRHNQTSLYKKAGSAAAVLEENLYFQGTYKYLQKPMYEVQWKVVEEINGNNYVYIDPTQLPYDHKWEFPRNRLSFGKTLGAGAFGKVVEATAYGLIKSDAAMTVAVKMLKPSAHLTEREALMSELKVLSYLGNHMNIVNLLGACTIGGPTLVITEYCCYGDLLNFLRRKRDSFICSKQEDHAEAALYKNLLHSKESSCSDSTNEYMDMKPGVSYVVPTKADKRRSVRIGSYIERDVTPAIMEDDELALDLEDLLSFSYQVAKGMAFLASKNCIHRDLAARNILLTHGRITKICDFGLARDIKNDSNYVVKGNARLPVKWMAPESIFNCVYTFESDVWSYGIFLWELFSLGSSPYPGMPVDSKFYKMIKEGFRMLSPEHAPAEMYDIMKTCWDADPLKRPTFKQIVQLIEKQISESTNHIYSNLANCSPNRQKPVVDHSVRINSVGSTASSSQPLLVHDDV
T2 sequence (P09619 557-1106): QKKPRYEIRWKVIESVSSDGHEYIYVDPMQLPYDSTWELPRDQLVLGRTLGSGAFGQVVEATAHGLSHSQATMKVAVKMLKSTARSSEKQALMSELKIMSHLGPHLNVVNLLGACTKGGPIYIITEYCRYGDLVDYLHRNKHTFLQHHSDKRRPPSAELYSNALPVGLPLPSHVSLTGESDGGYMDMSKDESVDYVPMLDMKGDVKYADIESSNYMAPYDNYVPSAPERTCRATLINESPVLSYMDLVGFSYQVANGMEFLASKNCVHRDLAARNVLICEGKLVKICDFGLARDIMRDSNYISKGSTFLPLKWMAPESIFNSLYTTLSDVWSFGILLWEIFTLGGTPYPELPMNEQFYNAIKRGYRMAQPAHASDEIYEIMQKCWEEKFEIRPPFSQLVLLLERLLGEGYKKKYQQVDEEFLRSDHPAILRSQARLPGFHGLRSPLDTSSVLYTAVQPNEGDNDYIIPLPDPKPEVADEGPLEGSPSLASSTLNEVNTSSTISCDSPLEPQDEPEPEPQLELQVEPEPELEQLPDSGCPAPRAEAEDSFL

Structure (SMILES)	pIC50 [1]	pIC50 [2]	pIC50 [3]	pIC50 (M-NFS-60 cells)	pIC50 (osteoclast precursors)
Cc1cn(-c2cc(Oc3ccc(-n4nc(-c5ccc(F)cc5)[nH]c4=O)nc3C)ccn2)cn1 [Example 29, 3-(4-fluorophenyl)-1-(6-methyl-5-((2-(4-methyl-1H-imidazol-1-yl)pyridin-4-yl)oxy)pyridin-2-yl)-1H-1,2,4-triazol-5(4H)-one]	6.00 to 7.00	< 6.00	7.00 to 8.00	6.00 to 7.00	6.00 to 7.00
Cc1nc(-n2nc(C3CC3)[nH]c2=O)ccc1Oc1ccnc(-c2cnn(C)c2)c1 [Example 35, 3-cyclopropyl-1-(6-methyl-5-((2-(1-methyl-1H-pyrazol-4-yl)pyridin-4-yl)oxy)pyridin-2-yl)-1H-1,2,4-triazol-5(4H)-one]	6.00 to 7.00	< 6.00	6.00 to 7.00	< 6.00	6.00 to 7.00
Cc1cn(-c2cc(Oc3ccc(-n4nc(C(C)(C)C)[nH]c4=O)nc3C)ccn2)cn1 [Example 19, 3-(tert-butyl)-1-(6-methyl-5-((2-(4-methyl-1H-imidazol-1-yl)pyridin-4-yl)oxy)pyridin-2-yl)-1H-1,2,4-triazol-5(4H)-one]	< 6.00	< 6.00	7.00 to 8.00	6.00 to 7.00	6.00 to 7.00
CC(=O)Nc1cc(Oc2ccc(-n3nc(C(C)(C)C)[nH]c3=O)nc2C)ccn1 [Example 11, N-(4-((6-(3-(tert-butyl)-5-oxo-4,5-dihydro-1H-1,2,4-triazol-1-yl)-2-methylpyridin-3-yl)oxy)pyridin-2-yl)acetamide]	< 6.00	< 6.00	7.00 to 8.00	6.00 to 7.00	6.00 to 7.00
Cc1nc(-n2nc(C(C)(C)C)[nH]c2=O)ccc1Oc1ccnc(-c2ccnc(N3CCN(C)CC3)c2)c1 [Example 41, 3-(tert-butyl)-1-(6-methyl-5-((2′-(4-methylpiperazin-1-yl)-[2,4′-bipyridin]-4-yl)oxy)pyridin-2-yl)-1H-1,2,4-triazol-5(4H)-one]	< 6.00	< 6.00	6.00 to 7.00	< 6.00	6.00 to 7.00
Cc1nc(-n2nc(C(C)(C)C)[nH]c2=O)ccc1Oc1ccnc(-c2cn[nH]c2)c1 [Example 24, 1-(5-((2-(1H-pyrazol-4-yl)pyridin-4-yl)oxy)-6-methylpyridin-2-yl)-3-(tert-butyl)-1H-1,2,4-triazol-5(4H)-one]	< 6.00	< 6.00	6.00 to 7.00	6.00 to 7.00	6.00 to 7.00
COCCc1nn(-c2ccc(Oc3ccnc(-c4cnn(C)c4)c3)c(C)n2)c(=O)[nH]1 [Example 15, 3-(2-methoxyethyl)-1-(6-methyl-5-((2-(1-methyl-1H-pyrazol-4-yl)pyridin-4-yl)oxy)pyridin-2-yl)-1H-1,2,4-triazol-5(4H)-one]	< 6.00	< 6.00	7.00 to 8.00	< 6.00	6.00 to 7.00
Cc1ncc(-c2cc(Oc3ccc(-n4nc(C(C)(C)C)[nH]c4=O)nc3C)ccn2)s1 [Example 12, 3-(tert-butyl)-1-(6-methyl-5-((2-(2-methylthiazol-5-yl)pyridin-4-yl)oxy)pyridin-2-yl)-1H-1,2,4-triazol-5(4H)-one]	6.00 to 7.00	< 6.00	7.00 to 8.00	7.00 to 8.00	7.00 to 8.00
CNC(=O)c1cc(Oc2ccc(-n3nc(C(C)(C)C)[nH]c3=O)nc2)ccn1 [Example 26, 4-((6-(3-(tert-butyl)-5-oxo-4,5-dihydro-1H-1,2,4-triazol-1-yl)pyridin-3-yl)oxy)-N-methylpicolinamide]	< 6.00	< 6.00	7.00 to 8.00	< 6.00	6.00 to 7.00
Cc1nc(-n2nc(C(C)(C)CO)[nH]c2=O)ccc1Oc1ccnc(-c2cnn(C)c2)c1 [Example 42, 3-(1-hydroxy-2-methylpropan-2-yl)-1-(6-methyl-5-((2-(1-methyl-1H-pyrazol-4-yl)pyridin-4-yl)oxy)pyridin-2-yl)-1H-1,2,4-triazol-5(4H)-one]	< 6.00	< 6.00	7.00 to 8.00	< 6.00	6.00 to 7.00
COCc1nn(-c2ccc(Oc3ccnc(-c4cnn(C)c4)c3)c(C)n2)c(=O)[nH]1 [Example 17, 3-(methoxymethyl)-1-(6-methyl-5-((2-(1-methyl-1H-pyrazol-4-yl)pyridin-4-yl)oxy)pyridin-2-yl)-1H-1,2,4-triazol-5(4H)-one]	< 6.00	–	6.00 to 7.00	< 6.00	< 6.00
